Experimental data as given in patent publication US4447455A, “Oral urolithiasis remedy” (Madaus and Company, priority 1982, dated 1984).
“Also recorded” adds a separate entry of the source.

How the values were obtained:
[1] = overall summary of pharmacological and toxicological tests; type: in vivo
[2] = in vitro crystallization of calcium oxalate
[3] = tested on: oxalate urolithiasis; experiment: therapeutic use in oxalate urolithiasis (general statements); type: in vivo, human; conditions: general statement
[4] = acute toxicity / tolerability in the mouse; type: in vivo; conditions: alizarin, one gram per kilogram
[5] = acute toxicity / tolerability in the rat; type: in vivo; conditions: alizarin, up to 400 mg/kg
[6] = tested on: edema of the paws of rats; experiment: anti-inflammatory action: edema of the paws induced by viscarin-carrageenin; type: in vivo, rat; conditions: AMDK 600 mg/kg p.o.; for Edema volume: 10 animals
Description: The possibility of any effect on inflammatory reactions was tested on edema of the paws of rats (groups of ten rats each) induced by viscarin-carrageenin. […] The measurement of the course of the edema was performed at 3, 5, 7 and 24 hours after the edematization. […] Where the variances between the experimental and control groups were unequal, the more rigorous t test (according to SNEDECOR) was applied for the judgment.

Compound	tolerance in the acute toxicity test [1]	action on the crystallization of calcium oxalate [2]	effect on the formation of stones [3]	effectiveness in treatment of urolithiasis [3]	tolerance [3]	tolerance of acute administration [4]	tolerance of acute administration [5]	Percentage of inhibition (edema) ([6]; 3 hours after edematization)	Edema volume ([6]; 3 hours after edematization)	Percentage of inhibition (edema) ([6]; 5 hours after edematization)	Edema volume ([6]; 5 hours after edematization)	Percentage of inhibition (edema) ([6]; 7 hours after edematization)	Edema volume ([6]; 7 hours after edematization)	Percentage of inhibition (edema) ([6]; 24 hours after edematization)	Edema volume ([6]; 24 hours after edematization)
O=C1c2ccccc2C(=O)c2c1ccc(O)c2O [alizarin]	extremely well tolerated	inhibiting action on the crystallization of calcium oxalate	decided inhibitive effect on the formation of stones	decidedly effective	easily tolerated; also recorded: very well tolerated	tolerated without producing symptoms	tolerated without producing symptoms								
Sodium escinate								41.4 Percentage	46.5 mL	37.2 Percentage	50.7 mL	39.1 Percentage	46.6 mL	40.9 Percentage	14.9 mL
